These results are taken from patent US10662203B2, “Pyrido[2,3-b]indole compounds for the treatment and prophylaxis of bacterial infection” (Hoffmann-La Roche Inc., priority 2017, dated 2020).

≈ marks a conversion by molar mass, not a printed value.

The nature of data set [1]: Lyophilisation solubility assay (LYSA). The class given is physicochemical. Particulars: 0.05 M phosphate buffer, HPLC-UV; for solubility thermodynamic: phosphate buffer, pH 6.5, aqueous buffer, thermodynamic from solid. Here is the method:
Lyophilisation Solubility Assay (LYSA):
The solubility of compounds of present invention was assessed by LYSA assay. Samples were prepared in duplicate from 10 mM DMSO stock solutions (20 μL) diluted in 30 μL pure DMSO. After evaporation of DMSO with a centrifugal vacuum evaporator, the residue was dissolved in 0.05 M phosphate buffer (150 μL, pH 6.5), which was stirred for one hour and shook for two hours. After one night, the solution was filtered using a microtiter filter plate. Then the filtrate and its 1/10 dilution were analyzed by HPLC-UV.

The test system of another data set is A. baumannii (ATCC17978). Nature of the data set: 50% growth inhibitory concentration (IC50) determination assay. Format: cell-based. As to conditions: Acinetobacter baumannii, ATCC17978, A. baumannii ATCC17978; Iso-Sensitest broth; 0.098 = detection limit. Summed up: (§1)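 Compounds were two-fold serially diluted (50 to 0.097 μM final) in Iso-Sensitest broth, with ~5×10^5 CFU/mL bacteria. Plates were incubated at 35±2° C and growth followed by OD600 every 20 min over 16 h to derive IC50.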

A further data set relates to S. aureus (ATCC29213). The data set is described as above. Particulars: Staphylococcus aureus, Iso-Sensitest broth, 0.098 = detection limit. The class given is cell-based. The procedure, abridged:
as §1

Data set [2] deals with K. pneumoniae (ATCC10031). The data set is described as above. Format: cell-based. Particulars: Klebsiella pneumoniae, Iso-Sensitest broth, 0.098 = detection limit. Summed up: as §1

As for `CNc1cc(F)c(F)c2c1[nH]c1ncc(-c3cnc4c(c3)c(=O)c(C(=O)O)cn4COC)c(N3CC[C@H]4CN(C)C[C@H]43)c12` (relative stereo) [Example 5.06, 6-[4-[cis-5-methyl-2,3,3a,4,6,6a-hexahydropyrrolo[2,3-c]pyrrol-1-yl]-5,6-difluoro-8-(methylamino)-9H-pyrido[2,3-b]indol-3-yl]-1-(methoxymethyl)-4-oxo-1,8-naphthyridine-3-carboxylic acid], in data set [1], the thermodynamic solubility (in general, the concentration in solution at equilibrium with solid) was 366 µg/mL (≈ 621 µM). The IC50 (in general, the point on the concentration scale where inhibition reaches its midpoint) was 0.295 µM in the data set with A. baumannii (ATCC17978), below 0.098 µM in the data set with S. aureus (ATCC29213) and below 0.098 µM in data set [2].

`CCN1CCCC1Cn1cc(C(=O)O)c(=O)c2cc(-c3cnc4[nH]c5c(NC)cc(F)c(F)c5c4c3N(C)C)cnc21` (stereo not shown) [Example 1.04] had a thermodynamic solubility in data set [1] of 32 µg/mL (≈ 55.6 µM). Further, the IC50 was 0.935 µM with A. baumannii (ATCC17978), below 0.098 µM in the data set with S. aureus (ATCC29213) and 0.101 µM in data set [2].

For the compound `CNc1cc(F)c(F)c2c1[nH]c1ncc(-c3cnc4c(c3)c(=O)c(C(=O)O)cn4C)c(N3CCC[C@@H]3CN(C)C)c12` [Example 1.13], the thermodynamic solubility in data set [1] was found to be 389 µg/mL (≈ 693 µM).

Compound `CNc1cc(F)c(F)c2c1[nH]c1ncc(-c3cnc4c(c3)c(=O)c(C(=O)O)cn4C)c(N3CC4C(CN(C)C)CO[C@@H]4C3)c12` (stereo partly shown) [Example 1.88] showed a solubility (thermodynamic) in data set [1] of 485 µg/mL (≈ 803 µM). In addition, the 50% inhibitory concentration (IC50) was 0.289 µM in the data set with A. baumannii (ATCC17978), below 0.098 µM with S. aureus (ATCC29213) and below 0.098 µM in data set [2].

With `CNc1cc(F)cc2c1[nH]c1ncc(-c3cnc4c(c3)c(=O)c(C(=O)O)cn4NC)c(N3CCC(F)(CN(C)C)C3)c12` (stereo not shown) [Example 1.92], the thermodynamic solubility in data set [1] came out at 88 µg/mL (≈ 153 µM). The IC50 is 0.14 µM with A. baumannii (ATCC17978), below 0.098 µM in the data set with S. aureus (ATCC29213) and below 0.098 µM in data set [2].

In data set [1], `CNc1cc(F)c(F)c2c1[nH]c1ncc(-c3cnc4c(c3)c(=O)c(C(=O)O)cn4NC)c(N3CCC(F)(CN(C)C)C3)c12` (stereo not shown) [Example 1.93] showed a thermodynamic solubility of 105 µg/mL (≈ 177 µM). Further, the figures for the IC50 (with A. baumannii (ATCC17978); with S. aureus (ATCC29213); in data set [2]) were 0.094 µM, below 0.098 µM and below 0.098 µM, respectively.

The compound `CNc1cc(F)c(F)c2c1[nH]c1ncc(-c3cnc4c(c3)c(=O)c(C(=O)O)cn4C)c(N3CC[C@H]4CN(CCOC)CC43)c12` (stereo partly shown) [Example 1.96] had a thermodynamic solubility in data set [1] of 169 µg/mL (≈ 280 µM). Moreover, the IC50 with A. baumannii (ATCC17978) was 0.269 µM; in the data set on S. aureus (ATCC29213), below 0.098 µM; in data set [2], below 0.098 µM.

Take `CNc1cc(F)c(F)c2c1[nH]c1ncc(-c3cnc4c(c3)c(=O)c(C(=O)O)cn4C)c(N3CCC(O)(CN(C)C)C3)c12` (stereo not shown) [Example 1.100]: the thermodynamic solubility in data set [1] amounted to 632 µg/mL (≈ 1090 µM). The values for the IC50 (in the data set on A. baumannii (ATCC17978); with S. aureus (ATCC29213); in data set [2]) were 0.9 µM, 0.272 µM and below 0.098 µM, respectively.

On to `CNc1cc(F)c(F)c2c1[nH]c1ncc(-c3cnc4c(c3)c(=O)c(C(=O)O)cn4C)c(N3CCC(C)(CN(C)C)C3)c12` (stereo not shown) [Example 1.101], for which the thermodynamic solubility in data set [1] came to 214 µg/mL (≈ 372 µM). Further, the IC50 in the data set with A. baumannii (ATCC17978) was 0.15 µM; in the data set on S. aureus (ATCC29213), below 0.098 µM; in data set [2], below 0.098 µM.

For the compound `CNc1c(F)c(F)cc2c1[nH]c1ncc(-c3cnc4c(c3)c(=O)c(C(=O)O)cn4C)c(N3CC[C@H]4CN(C)CC43)c12` (stereo partly shown) [Example 1.103], the thermodynamic solubility in data set [1] came to 11 µg/mL (≈ 19.7 µM). In addition, the IC50 in the data set with A. baumannii (ATCC17978) came out at 0.13 µM.

Take `CNc1cc(F)c(F)c2c1[nH]c1ncc(-c3cnc4c(c3)c(=O)c(C(=O)O)cn4C)c(N3C[C@H](OC)[C@@H](N(C)C)C3)c12` [Example 1.158]: the Lysa in data set [1] (pH 6.5) worked out at 49 µg/mL. The IC50 with A. baumannii (ATCC17978) was 0.23 µM.

On to `CNc1cc(F)c(F)c2c1[nH]c1ncc(-c3cnc4c(c3)c(=O)c(C(=O)O)cn4C)c(N3CCN4CCC[C@H]4C3)c12` [Example 1.219], for which the solubility (thermodynamic) in data set [1] is 73 µg/mL (≈ 130 µM). The compound further returned a concentration for half-maximal inhibition (IC50) in the data set with A. baumannii (ATCC17978) of 0.267 µM.

Compound `CNc1cc(F)c(F)c2c1[nH]c1ncc(-c3cnc4c(c3)c(=O)c(C(=O)O)cn4C)c(N3CCN4CCC[C@@H]4C3)c12` [Example 1.220] came in with a solubility (thermodynamic) in data set [1] of 79 µg/mL (≈ 141 µM). Moreover, in the data set on A. baumannii (ATCC17978), the IC50 is 0.141 µM.

`CNc1cc(F)c(F)c2c1[nH]c1ncc(-c3cnc4c(c3)c(=O)c(C(=O)O)cn4NC)c(N3CC4OCCN(C)C4C3)c12` (stereo not shown) [Example 1.236] yielded a thermodynamic solubility in data set [1] of 55 µg/mL (≈ 93.1 µM).

As for `CNc1cc(F)c(F)c2c1[nH]c1ncc(-c3cnc4c(c3)c(=O)c(C(=O)O)cn4NC)c(N3CCC4CN(C)CCC43)c12` (stereo not shown) [Example 1.244], the thermodynamic solubility in data set [1] turned out to be 254 µg/mL (≈ 432 µM).

Compound `CNc1cc(F)c(F)c2c1[nH]c1ncc(-c3cnc4c(c3)c(=O)c(C(=O)O)cn4C)c(N3CC[C@@H]4CN(C)C[C@@H]43)c12` [Example 3.03B] displayed a solubility (thermodynamic) in data set [1] of 180 µg/mL (≈ 322 µM).

`CNc1cc(F)c(F)c2c1[nH]c1ncc(-c3cnc4c(c3)c(=O)c(C(=O)O)cn4C)c(N3CC[C@@]4(CN(C)CCO4)C3)c12` [Example 3.16A]: the figures for the IC50 (in the data set on A. baumannii (ATCC17978); in the data set with S. aureus (ATCC29213); in data set [2]) were 0.161 µM, below 0.098 µM and below 0.098 µM, respectively.

On to `CNc1cc(F)c(F)c2c1[nH]c1ncc(-c3cnc4c(c3)c(=O)c(C(=O)O)cn4C)c(N3CC[C@]4(CN(C)CCO4)C3)c12` [Example 3.16B], for which the IC50 in the data set with A. baumannii (ATCC17978) was 0.19 µM; in the data set with S. aureus (ATCC29213), below 0.098 µM; in data set [2] it was below 0.098 µM.

For the compound `CNc1cc(F)cc2c1[nH]c1ncc(-c3cnc4c(c3)c(=O)c(C(=O)O)cn4C)c(N3C[C@H]4OCCN(C)[C@H]4C3)c12` [Example 3.22A], the IC50 in the data set on A. baumannii (ATCC17978) was 0.363 µM; with S. aureus (ATCC29213), below 0.098 µM; in data set [2] it was below 0.098 µM.

As for `CNc1cc(F)cc2c1[nH]c1ncc(-c3cnc4c(c3)c(=O)c(C(=O)O)cn4C)c(N3C[C@@H]4OCCN(C)[C@@H]4C3)c12` [Example 3.22B], the values for the IC50 (in the data set on A. baumannii (ATCC17978); with S. aureus (ATCC29213); in data set [2]) were 0.256 µM, below 0.098 µM and below 0.098 µM, respectively.

For `CNc1cc(F)c(F)c2c1[nH]c1ncc(-c3cnc4c(c3)c(=O)c(C(=O)O)cn4C)c(N3C[C@@H]4OCCN(C)[C@H]4C3)c12` [Example 3.24A], the IC50 in the data set on A. baumannii (ATCC17978) was 0.315 µM; in the data set with S. aureus (ATCC29213) it was below 0.098 µM; in data set [2], below 0.098 µM.

On to `CNc1cc(F)c(F)c2c1[nH]c1ncc(-c3cnc4c(c3)c(=O)c(C(=O)O)cn4C)c(N3C[C@@H]4[C@@H](C3)OCCN4C)c12` [Example 3.24B], for which the results for the IC50 (in the data set on A. baumannii (ATCC17978); with S. aureus (ATCC29213); in data set [2]) were 0.371 µM, below 0.098 µM and below 0.098 µM, respectively.

For the compound `CNc1cc(F)c(F)c2c1[nH]c1ncc(-c3cnc4c(c3)c(=O)c(C(=O)O)cn4C)c(N3CCO[C@H](CN(C)C)C3)c12` [Example 4.02A, (R)-6-(4-(2-((dimethylamino)methyl)morpholino)-5,6-difluoro-8-(methylamino)-9H-pyrido[2,3-b]indol-3-yl)-1-methyl-4-oxo-1,4-dihydro-1,8-naphthyridine-3-carboxylic acid], the IC50 in the data set on A. baumannii (ATCC17978) was 0.437 µM; in the data set with S. aureus (ATCC29213) it was 0.197 µM; in data set [2], below 0.098 µM.

Regarding `CNc1cc(F)c(F)c2c1[nH]c1ncc(-c3cnc4c(c3)c(=O)c(C(=O)O)cn4C)c(N3CCO[C@@H](CN(C)C)C3)c12` [Example 4.02B, (S)-6-(4-(2-((dimethylamino)methyl)morpholino)-5,6-difluoro-8-(methylamino)-9H-pyrido[2,3-b]indol-3-yl)-1-methyl-4-oxo-1,4-dihydro-1,8-naphthyridine-3-carboxylic acid], the IC50 was 0.408 µM in the data set with A. baumannii (ATCC17978), 0.207 µM in the data set with S. aureus (ATCC29213) and below 0.098 µM in data set [2].

Compound `CNc1cc(F)c(F)c2c1[nH]c1ncc(-c3cnc4c(c3)c(=O)c(C(=O)O)cn4N)c(N3CC[C@H]4CN(C)CC43)c12` (stereo partly shown) [Example 5.02] showed a thermodynamic solubility in data set [1] of 174 µg/mL (≈ 310 µM).

For the compound `CNc1cc(F)c(F)c2c1[nH]c1ncc(-c3cnc4c(c3)c(=O)c(C(=O)O)cn4NCC(F)(F)F)c(N(C)C)c12` [Example 5.03, 6-(4-(dimethylamino)-5,6-difluoro-8-(methylamino)-9H-pyrido[2,3-b]indol-3-yl)-4-oxo-1-((2,2,2-trifluoroethyl)amino)-1,4-dihydro-1,8-naphthyridine-3-carboxylic acid], the IC50 in the data set on A. baumannii (ATCC17978) is 0.745 µM; with S. aureus (ATCC29213), below 0.098 µM; in data set [2], 0.275 µM.

In data set [1], `CNc1cc(F)cc2c1[nH]c1ncc(-c3cnc4c(c3)c(=O)c(C(=O)O)cn4N)c(N3CC[C@H]4CN(C)CC43)c12` (stereo partly shown) [Example 5.05] had a thermodynamic solubility of 250 µg/mL (≈ 461 µM).

For `CNc1cc(F)c(F)c2c1[nH]c1ncc(-c3cnc4c(c3)c(=O)c(C(=O)O)cn4C)c(N3CCC4(C[C@@H]4N(C)C)C3)c12` (stereo partly drawn) [Example 6.01, 6-(4-(trans-2-(Dimethylamino)-5-azaspiro[2.4]heptan-5-yl)-5,6-difluoro-8-(methylamino)-9H-pyrido[2,3-b]indol-3-yl)-1-methyl-4-oxo-1,4-dihydro-1,8-naphthyridine-3-carboxylic acid], the IC50 in the data set with A. baumannii (ATCC17978) was 0.257 µM; with S. aureus (ATCC29213), below 0.098 µM; in data set [2], 0.118 µM.

With `CNc1cc(F)c(F)c2c1[nH]c1ncc(-c3cnc4c(c3)c(=O)c(C(=O)O)cn4C)c(N3CCC4(C[C@H]4N(C)C)C3)c12` (stereo partly drawn) [Example 6.02, 6-(4-cis-(2-(dimethylamino)-5-azaspiro[2.4]heptan-5-yl)-5,6-difluoro-8-(methylamino)-9H-pyrido[2,3-b]indol-3-yl)-1-methyl-4-oxo-1,4-dihydro-1,8-naphthyridine-3-carboxylic acid], the results for the IC50 (in the data set with A. baumannii (ATCC17978); with S. aureus (ATCC29213); in data set [2]) were 0.389 µM, below 0.098 µM and 0.166 µM, respectively.
